Data: patent publication US4959378A, “Aminopyridinylaminophenol compounds useful as topical antiinflammatory agents for the treatment of skin disorders” (Hoechst-Roussel Pharmaceuticals Inc., priority 1989, dated 1990)

Assays:
[1] = system: naja naja (snake venom) phospholipase A2 -induced paw edema; assay: Phospholipase A2-induced Paw Edema (PIPE); format: in vivo, rat; details: for PIPE (0.1 M), difference in edema vs. control: 0.1M test compound injected with PLA2 (3 units/paw) subplantar, rat left hindpaw, two hours post administration
Experimental: Phospholipase A2 -induced Paw Edema (PIPE)
The ability of compounds to prevent naja naja (snake venom) phospholipase A2 -induced paw edema in male Wistar rates (100-125 g) was measured. PLA2 (3 units/paw) alone or with 0.1M of the test compound was injected in the subplantar region of the rat left hindpaw. Immediately subsequent to the injection and at two hours post administration the paw was immersed in a mercury bath, and paw displacement was measured on a recorder via a transducer. […] See Giessler, A. J. et al., Agents and Actions, Vol. 10, Trends in Inflammation Research (1981), p. 195.

porcine pancreatic PLA2 = target: T1, porcine pancreatic PLA2 (Sus scrofa, UniProt P00592); assay: In Vitro Phospholipase A2 Assay (PLA2); format: biochemical; details: 0.01 M test compound; porcine pancreatic PLA2 3.2 units, pH 8.0, 37° C.; read-out: PLA2 (0.01 M), difference vs. control
T1 construct: from tissue; host or cells: porcine pancreas
Experimental: In Vitro Phospholipase A2 Assay (PLA2)
The ability of a compound to modulate PLA2 activity (cleavage of ^14 C-dipalmitoyl phosphotidylcholine at the 2-position to ^14 C-palmitic acid) was quantitated in this assay. The reaction mixture contained Tris buffer (25 mM), pH 8.0, calcium chloride (2.0 mM), bovine serum albumin (0.5 mg), dipalmitoyl phosphotidylcholine (8×10^-5M), (^14 C-palmitoyl)dipalmitoyl phosphotidylcholine (6×10^3cpm), porcine pancreatic PLA2 (3.2 units) and the test compound. The reaction was run at 37° C. in a shaking incubator. The reaction was quenched and an internal standard was added in order to determine sample recovery. The samples were loaded onto C18 columns, eluted with ethanol, and the radioactivity was then measured. […] See Feyen, J. H. M., et al., Journal of Chromatography 259 (1983), pp. 338-340.

T1 sequence (P00592 23-146): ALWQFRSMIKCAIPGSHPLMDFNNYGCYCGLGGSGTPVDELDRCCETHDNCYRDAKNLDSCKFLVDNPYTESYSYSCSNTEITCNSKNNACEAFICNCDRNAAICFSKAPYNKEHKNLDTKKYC

Nc1ccncc1Nc1cccc(O)c1 [3-[(4-Amino-3-pyridinyl)amino]phenol]
PIPE (0.1 M), difference in edema vs. control [1]: -52%
inhibition at 10000 µM (porcine pancreatic PLA2): 35%

Nc1ccncc1Nc1ccc(O)cc1.O=C(O)/C=C\C(=O)O [4-[(4-Amino-3-pyridinyl)amino]phenol maleate]
PIPE (0.1 M), difference in edema vs. control [1]: -62%
inhibition at 10000 µM (porcine pancreatic PLA2): 35%

C[C@]12CCC(=O)C=C1CC[C@@H]1[C@@H]2[C@@H](O)C[C@@]2(C)[C@H]1CC[C@]2(O)C(=O)CO [hydrocortisone, reference compound]
ED50 (PIPE standard) ([1]; standard, subplantar injection with PLA2, male Wistar rats): 0.46 M
